The values that follow come from patent publication US11529341B2, “Bicyclic compounds as inhibitors of PD1/PD-L1 interaction/activation” (JUBILANT PRODEL LLC, priority 2018, dated 2022).

SMILES strings stand for the structures. pIC50: −log10 of the molar value.

T1 sequence (Q9NZQ7 19-238 limits assumed): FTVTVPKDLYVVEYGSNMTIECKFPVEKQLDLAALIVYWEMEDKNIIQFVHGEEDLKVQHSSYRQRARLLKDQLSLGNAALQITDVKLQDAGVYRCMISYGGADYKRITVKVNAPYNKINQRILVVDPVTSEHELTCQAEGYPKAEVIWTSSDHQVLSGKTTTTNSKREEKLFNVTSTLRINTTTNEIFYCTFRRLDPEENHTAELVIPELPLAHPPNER

This experiment concerns the target T1, PD-1/PD-L1 interaction (Homo sapiens, UniProt Q9NZQ7).
T1 construct: Tag1 (undisclosed kit tag); purchased CisBio 63ADK000CPAPEG
The experiment in a line: PD-1/PD-L1 Homogenous Time-Resolved Fluorescence (HTRF) binding assay (CisBio kit). To be noted: Biochemical PD1/PD-L1 inhibition. As to the method:
PD-L1 Enzyme Assay: Homogenous Time-Resolved Fluorescence (HTRF) Binding Assay
All binding studies were performed using PD-1/PD-L1 Binding Assay Kit from CisBio (Catalog #63ADK000CPAPEG), according to the manufacturer's protocol. The interaction between Tag1-PD-1 and […] was detected by anti-Tag1-Eu^3+ (HTRF donor) and anti-Tag2-XL665 (HTRF acceptor). When the donor and acceptor antibodies were brought to close proximity due to PD-1 and PD-L1 binding, excitation of the donor antibody triggered fluorescent resonance energy transfer (FRET) towards the acceptor antibody, which in turn emitted specifically at 665 nm. This specific signal is positively proportional to PD-1/PD-L1 interaction. The compounds blocking PD-1/PD-L1 interaction will cause a reduction in HTRF signal. The necessary reagents were mixed in the following order: 2 μl compounds (or diluents buffer), 4 μl PD-L1 protein, 4 μl PD-1 protein. After an incubation of 15 minutes, 5 μl of anti-Tag1-Eu^3+ and 5 μl of anti-Tag2-XL665 were added. The plate was sealed and incubated at room temperature for 1 h. The fluorescence emission was read at two different wavelengths (665 nm and 620 nm) on a BMG PheraStar® multi-plate reader. Results were calculated from the 665 nm and 620 nm fluorescence signal and expressed in HTRF ratio=(665 nm/620 nm)×10^4.
On the technique in general: In TR-FRET formats the signal depends on donor and acceptor labels being close together.
Usually pIC50 stands for the IC50 on a negative log10 scale, so that one unit is a factor of ten. The low end stands for a large IC50, the high end for a small IC50. `Cc1c(COc2ccc(CNCCC(=O)O)c3c2CCC3)cccc1-c1ccccc1` [Compound 21, 3-(((7-((2-methyl-[1,1′-biphenyl]-3-yl)methoxy)-2,3-dihydro-1H-inden-4-yl)methyl)amino)propanoic acid] showed a pIC50 of under 6.30.

The compound `Cc1c(COc2ccc(CN(C)CC(=O)O)c3c2CCC3)cccc1-c1ccccc1` [Compound 22, N-methyl-N-((7-((2-methyl-[1,1′-biphenyl]-3-yl)methoxy)-2,3-dihydro-1H-inden-4-yl)methyl)glycine] had a pIC50 of 6.30 to 7.00. Under `Cc1c(COc2ccc(CNC(C)CC(=O)O)c3c2CCC3)cccc1-c1ccccc1` (stereo not drawn) [Compound 23, 3-(((7-((2-methyl-[1,1′-biphenyl]-3-yl)methoxy)-2,3-dihydro-1H-inden-4-yl)methyl)amino)butanoic acid] stands under 6.30. As for `Cc1c(COc2ccc(CNC(C)C(=O)O)c3c2CCC3)cccc1-c1ccccc1` (stereo not drawn) [Compound 24, ((7-((2-methyl-[1,1′-biphenyl]-3-yl)methoxy)-2,3-dihydro-1H-inden-4-yl)methyl)alanine], the figure is under 6.30; as for `COc1cc(OCc2cccc(-c3ccccc3)c2C)c2c(c1CN1C[C@H](O)C[C@H]1C(=O)O)CCC2` [Compound 25, (2S,4R)-4-hydroxy-1-((5-methoxy-7-((2-methyl-[1,1′-biphenyl]-3-yl)methoxy)-2,3-dihydro-1H-inden-4-yl)methyl)pyrrolidine-2-carboxylic acid], over 7.00. Consider `COc1cc(OCc2cccc(-c3ccccc3)c2C)c2c(c1CN1CCCC[C@H]1C(=O)O)CCC2` [Compound 26, (S)-1-((5-methoxy-7-((2-methyl-[1,1′-biphenyl]-3-yl)methoxy)-2,3-dihydro-1H-inden-4-yl)methyl)piperidine-2-carboxylic acid], for which the pIC50 was 6.30 to 7.00. Under `Cc1c(COc2ccc(CN3CCCC[C@H]3C(=O)O)c3c2CCCC3)cccc1-c1ccccc1` [Compound 27, 1-((4-((2-methyl-[1,1′-biphenyl]-3-yl)methoxy)-5,6,7,8-tetrahydronaphthalen-1-yl)methyl)piperidine-2-carboxylic acid] stands 6.30 to 7.00.

`CC(=O)NCCNCc1cc(C)c(OCc2cccc(-c3ccccc3)c2C)c2c1CCC2` [Compound 28, N-(2-(((6-methyl-7-((2-methyl-[1,1′-biphenyl]-3-yl)methoxy)-2,3-dihydro-1H-inden-4-yl)methyl)amino)ethyl)acetamide] showed a pIC50 of under 6.30. As for `Cc1cc(CN2C[C@H](O)C[C@H]2C(=O)O)c2c(c1OCc1cccc(-c3ccccc3)c1C)CCC2` [Compound 29, (2S,4R)-4-hydroxy-1-((6-methyl-7-((2-methyl-[1,1′-biphenyl]-3-yl)methoxy)-2,3-dihydro-1H-inden-4-yl)methyl)pyrrolidine-2-carboxylic acid], the figure is 6.30 to 7.00; as for `CC(=O)NCCNCc1cc(Cl)c(OCc2cccc(-c3ccccc3)c2C)c2c1CCC2` [Compound 30, N-(2-(((6-chloro-7-((2-methyl-[1,1′-biphenyl]-3-yl)methoxy)-2,3-dihydro-1H-inden-4-yl)methyl)amino)ethyl)acetamide], 6.30 to 7.00. Under `Cc1c(COc2c(Cl)cc(CN3C[C@H](O)C[C@H]3C(=O)O)c3c2CCC3)cccc1-c1ccccc1` [Compound 31, (2S,4R)-1-((6-chloro-7-((2-methyl-[1,1′-biphenyl]-3-yl)methoxy)-2,3-dihydro-1H-inden-4-yl)methyl)-4-hydroxypyrrolidine-2-carboxylic acid] stands 6.30 to 7.00; under `COc1cc(OCc2cccc(-c3cccc(OCCCN4CCC(F)(F)C4)c3C)c2C)c2c(c1CNCCNC(C)=O)CCC2` [Compound 32, N-(2-(((7-((3′-(3-(3,3-difluoropyrrolidin-1-yl)propoxy)-2,2′-dimethyl-[1,1′-biphenyl]-3-yl)methoxy)-5-methoxy-2,3-dihydro-1H-inden-4-yl)methyl)amino)ethyl)acetamide], 6.30 to 7.00; under `COc1cc(OCc2cccc(-c3cccc(OCCCN4CCC(F)(F)C4)c3C)c2C)c2c(c1CN1C[C@H](O)C[C@H]1C(=O)O)CCC2` [Compound 33, (2S,4R)-1-((7-((3′-(3-(3,3-difluoropyrrolidin-1-yl)propoxy)-2,2′-dimethyl-[1,1′-biphenyl]-3-yl)methoxy)-5-methoxy-2,3-dihydro-1H-inden-4-yl)methyl)-4-hydroxypyrrolidine-2-carboxylic acid], under 6.30.

Regarding `CC(=O)NCCNCc1c(OCc2cccc(C#N)c2)cc(OCc2cccc(-c3ccccc3)c2C)c2c1CCC2` [Compound 34, N-(2-(((5-((3-cyanobenzyl)oxy)-7-((2-methyl-[1,1′-biphenyl]-3-yl)methoxy)-2,3-dihydro-1H-inden-4-yl)methyl)amino)ethyl)acetamide], the negative-log IC50 (pIC50) was over 7.00. The compound `Cc1c(COc2cc(OCc3cccc(C#N)c3)c(CN3C[C@H](O)C[C@H]3C(=O)O)c3c2CCC3)cccc1-c1ccccc1` [Compound 35, (2S,4R)-1-((5-((3-cyanobenzyl)oxy)-7-((2-methyl-[1,1′-biphenyl]-3-yl)methoxy)-2,3-dihydro-1H-inden-4-yl)methyl)-4-hydroxypyrrolidine-2-carboxylic acid] gave a negative-log IC50 (pIC50) of over 7.00. Under `Cc1c(COc2cc(OCc3cccc(C#N)c3)c(CN3CCCC[C@H]3C(N)=O)c3c2CCC3)cccc1-c1ccccc1` [Compound 37, (S)-1-((5-((3-cyanobenzyl)oxy)-7-((2-methyl-[1,1′-biphenyl]-3-yl)methoxy)-2,3-dihydro-1H-inden-4-yl)methyl)piperidine-2-carboxamide] stands over 7.00; under `Cc1c(COc2cc(OCc3cccc(C#N)c3)c(CNC(CO)(CO)CO)c3c2CCC3)cccc1-c1ccccc1` [Compound 38, 3-(((4-(((1,3-dihydroxy-2-(hydroxymethyl)propan-2-yl)amino)methyl)-7-((2-methyl-[1,1′-biphenyl]-3-yl)methoxy)-2,3-dihydro-1H-inden-5-yl)oxy)methyl)benzonitrile], over 7.00.

Compound `Cc1c(COc2cc(OCc3cccc(C#N)c3)c(CN3CC4(COC4)C3)c3c2CCC3)cccc1-c1ccccc1` [Compound 39, 3-(((4-((2-oxa-6-azaspiro[3.3]heptan-6-yl)methyl)-7-((2-methyl-[1,1′-biphenyl]-3-yl)methoxy)-2,3-dihydro-1H-inden-5-yl)oxy)methyl)benzonitrile] showed a negative-log IC50 (pIC50) of 6.30 to 7.00. Under `Cc1c(COc2cc(OCc3cccc(C#N)c3)c(CN3CCCC(O)C3)c3c2CCC3)cccc1-c1ccccc1` (stereo not drawn) [Compound 40, 3-(((4-((3-hydroxypiperidin-1-yl)methyl)-7-((2-methyl-[1,1′-biphenyl]-3-yl)methoxy)-2,3-dihydro-1H-inden-5-yl)oxy)methyl)benzonitrile] stands over 7.00; under `Cc1c(COc2cc(OCc3cccc(C#N)c3)c(CNCC(=O)O)c3c2CCC3)cccc1-c1ccccc1` [Compound 41, ((5-((3-cyanobenzyl)oxy)-7-((2-methyl-[1,1′-biphenyl]-3-yl)methoxy)-2,3-dihydro-1H-inden-4-yl)methyl)glycine], over 7.00; under `Cc1c(COc2cc(OCc3cccc(C#N)c3)c(CN3CC4(CC4)C[C@H]3C(=O)O)c3c2CCC3)cccc1-c1ccccc1` [Compound 42, (S)-5-((5-((3-cyanobenzyl)oxy)-7-((2-methyl-[1,1′-biphenyl]-3-yl)methoxy)-2,3-dihydro-1H-inden-4-yl)methyl)-5-azaspiro[2.4]heptane-6-carboxylic acid], over 7.00.
